The text below walks through data of patent US10280163B2 (BeiGene, Ltd., priority 2015, dated 2019).

The term EC50 denotes the concentration giving half of the maximal effect. Broadly, the IC50 is the concentration that inhibits the measured activity by half.

In experiment [1] the target is T1, cellular IDO1 in HeLa cells (Homo sapiens, UniProt P14902).
T1 construct: endogenous in cells; host or cells: HeLa cells (American Type Tissue Culture Collection), induced with human recombinant IFN-γ
Description: HeLa cell-based IDO1 Kyn (kynurenine) production assay. The note with it: IFN-γ 100 ng/mL, 48 hours. On the procedure: HeLa Cell-Based IDO1 Kyn (Kynurenine) Production Assay:
The inhibitory activity of IDO1 inhibitors is determined by using a colorimetric reaction to measure Kyn generated from L-Trp (L-Tryptophon) oxidation by cellular IDO1 in HeLa cells after induction of IDO1 by IFN-γ.
Hela cells were obtained from the American Type Tissue Culture Collection and recovered in 10% FBS-containing phenol red-free DMEM medium supplemented with 0.4 mM L-Trp. Cells were plated onto a 96-well plate (100 μl/well) at 8000 cells per well. Human recombinant IFN-γ (8901SC, CST) was added to cells (final concentration 100 ng/mL) to stimulate endogenous IDO1. Compounds at different concentrations diluted in dimethylsulfoxide (DMSO) were added simultaneously with IFN-γ. Cells were kept at 37° C. in a humidified incubator supplied with 5% CO2. After 48 hours of incubation, 100 μl supernatant from each well was removed to a new plate. The protein in the medium was precipitated with the addition of 8 μl 6N trichloroacetic acid. The plate was incubated at 60° C. for 45 min and then centrifugation at 2500 rpm for 10 min to remove sediments. 80 μl supernatants were carefully removed to a new clean plate and added with an equal volume of 2% 4-(Dimethylamino) benzaldehyde (D2004, sigma) dissolved in glacial acetic acid. The absorbance at 480 nm wavelength derived from Kyn was measured using a FULOstar OMEGA plate reader (BMG LABTECH). The IC50 for each compound was derived from fitting the dose-response data to the four-parameter logistic model by using Graphpad Prism software.

The target of the next experiment is T2, Recombinant IDO1 (Homo sapiens, UniProt P14902).
T2 construct: His tag (N); made in house; host or cells: E. coli
T2 sequence (P14902 whole entry): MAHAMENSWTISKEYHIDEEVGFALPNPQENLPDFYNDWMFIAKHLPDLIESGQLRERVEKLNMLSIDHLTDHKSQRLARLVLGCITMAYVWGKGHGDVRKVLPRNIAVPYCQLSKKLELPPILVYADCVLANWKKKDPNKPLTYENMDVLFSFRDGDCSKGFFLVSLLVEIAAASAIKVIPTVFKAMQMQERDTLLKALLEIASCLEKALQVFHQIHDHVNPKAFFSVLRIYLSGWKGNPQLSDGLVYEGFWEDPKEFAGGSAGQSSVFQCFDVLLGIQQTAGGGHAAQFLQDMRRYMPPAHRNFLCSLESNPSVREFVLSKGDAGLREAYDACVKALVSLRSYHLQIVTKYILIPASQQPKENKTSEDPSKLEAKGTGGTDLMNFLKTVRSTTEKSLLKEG
The experiment in a line: IDO1 enzymatic assay. The note with it: 50 nM IDO1, 1.3 mM D-tryptophan, read-out: Enzyme IC50 (nM) IDO1. The format is biochemical. On the procedure:
Recombinant IDO1 was overexpressed and purified from E. coli cells with an N-terminal His tag. IDO1 enzymatic assay was carried out using a methodology similar to described in the literature (J. Biol. Chem. (1980), 255, 1339-1345.). The reaction mixture contains 50 nM IDO1, 1.3 mM D-tryptophan, 5 mM L-ascorbic acid, 6.25 μM methylene Blue, 0.4 mg/mL catalase and compound (or DMSO) in a buffer containing 50 mM potassium phosphate pH 7.5 and 0.1% BSA. After incubation at 24° C. for 1.5 hours, absorbance of the reaction mixture was continuously read at 321 nm to monitor the formation of N′-formylkynurenine by a FULOstar OMEGA plate reader (BMG LABTECH) for 1 hour. The enzymatic activity was determined by measuring the slope of the linear absorbance increase as a function of time. The IC50s are calculated based on remaining enzyme activity in the presence of increasing concentrations of compounds.

[2] abbreviates: Table 1, 5-substituted imidazo[1,5-a]pyridines.
Setting [3] is: Table 2, 8-substituted imidazo[1,5-a]pyridines.

Read-outs that look alike come from different tables or passages of the source. Where only a bound is given, the exact number is not on record here.

T1 sequence (P14902 whole entry): as above

`OC(c1c(C2CCCC2)ccc2cncn12)C1CCCCC1` (stereo not shown) [Example A158, cyclohexyl(6-cyclopentylimidazo[1,5-a]pyridin-5-yl)methanol]: the EC50 in experiment [1] (setting [2]) is 933 nM. Moreover, on Recombinant IDO1 (setting [2]), the IC50 was determined as 880 nM.
The like results for `O=C(O)c1cccc(C(O)c2c(C3CC3)ccc3cncn23)c1` (stereo not shown) [Example A159, 3-((6-cyclopropylimidazo[1,5-a]pyridin-5-yl)(hydroxy)methyl)benzoic acid] were, in that order, above 10000 nM and 5500 nM.
The like results for `O=C(NC1CC1)c1cccc(C(O)c2c(C3CC3)ccc3cncn23)c1` (stereo not shown) [Example A160, N-cyclopropyl-3-((6-cyclopropylimidazo[1,5-a]pyridin-5-yl)(hydroxy)methyl)benzamide] were, in that order, 5610 nM and 81 nM.
`O=C1C2CCC(C2)C1C(O)c1c(C2CC2)ccc2cncn12` (stereo not shown) [Example A161, 3-((6-cyclopropylimidazo[1,5-a]pyridin-5-yl)(hydroxy)methyl)bicyclo[2.2.1]heptan-2-one] gave an EC50 in experiment [1] (setting [2]) above 10000 nM. The IC50 at Recombinant IDO1 (setting [2]) was found to be 57000 nM.
The like results for `OC(c1c(C2CC2)ccc2cncn12)C1CC2CCC1C2` (stereo not shown) [Example A162, (Bicyclo[2.2.1]heptan-2-yl)(6-cyclopropylimidazo[1,5-a]pyridin-5-yl)methanol] were, in that order, 34 nM and 32 nM.
For `O[C@H](c1c(C2CC2)ccc2cncn12)C1CC2CCC1C2` (stereo partly drawn) [Example A162a, (1S)-(bicyclo[2.2.1]heptan-2-yl)(6-cyclopropylimidazo[1,5-a]pyridin-5-yl)methanol], the EC50 in experiment [1] (setting [2]) was 8.8 nM. Besides, the concentration for half-maximal inhibition (IC50) at Recombinant IDO1 (setting [2]) came to 11 nM.
The like results for `O[C@@H](c1c(C2CC2)ccc2cncn12)C1CC2CCC1C2` (stereo partly drawn) [Example A162b, (1R)-(bicyclo[2.2.1]heptan-2-yl)(6-cyclopropylimidazo[1,5-a]pyridin-5-yl)methanol] were, in that order, 6040 nM and 1600 nM.
The like results for `OC(CC12CC3CC(CC(C3)C1)C2)c1c(C2CC2)ccc2cncn12` (stereo not shown) [Example A163, 2-(Adamantan-1-yl)-1-(6-cyclopropylimidazo[1,5-a]pyridin-5-yl)ethan-1-ol] were, in that order, 102 nM and 94 nM.
The like results for `OC1CCCC(C(O)c2c(C3CC3)ccc3cncn23)C1` (stereo not shown) [Example A164b, 3-((6-Cyclopropylimidazo[1,5-a]pyridin-5-yl)(hydroxy)methyl)cyclohexan-1-ol] were, in that order, 226 nM and 42 nM.
`OC1CC2CC1CC2C(O)c1c(C2CC2)ccc2cncn12` (stereo not shown) [Example A165, 5-((6-cyclopropylimidazo[1,5-a]pyridin-5-yl)(hydroxy)methyl)bicyclo[2.2.1]heptan-2-ol] yielded an EC50 in experiment [1] (setting [2]) of 1200 nM. Moreover, the IC50 at Recombinant IDO1 (setting [2]) was determined as 430 nM.
For `OC(CC1CC1)c1cccn2cncc12` (stereo not shown) [Example B007, 2-cyclopropyl-1-(imidazo[1,5-a]pyridin-8-yl)ethan-1-ol], in experiment [1] (setting [3]), the EC50 was above 10000 nM. Moreover, the 50% inhibitory concentration (IC50) on Recombinant IDO1 (setting [3]) was determined as 6600 nM.
Regarding `CC(O)(CC1CCCCC1)c1cccn2cncc12` (stereo not shown) [Example B009, 1-cyclohexyl-2-(imidazo[1,5-a]pyridin-8-yl)propan-2-ol], the EC50 in experiment [1] (setting [3]) is above 10000 nM. In addition, at Recombinant IDO1 (setting [3]), the IC50 turned out to be 18000 nM.
The like results for `OC(CCc1cccn2cncc12)C1CCCCC1` (stereo not shown) [Example B010, 1-Cyclohexyl-3-(imidazo[1,5-a]pyridin-8-yl)propan-1-ol] were, in that order, above 10000 nM and 14000 nM.
The like results for `OC(c1c(C(F)(F)F)ccn2cncc12)C1CCCCC1` (stereo not shown) [Example B111, Cyclohexyl(7-(trifluoromethyl)imidazo[1,5-a]pyridin-8-yl)methanol] were, in that order, 415 nM and 85 nM.
In experiment [1] (setting [3]), `OC(c1c(C2CC2)ccn2cncc12)C1CCOCC1` (stereo not shown) [Example B112, (7-Cyclopropylimidazo[1,5-a]pyridin-8-yl)(tetrahydro-2H-pyran-4-yl)methanol] had an EC50 of 1680 nM. Moreover, the IC50 at Recombinant IDO1 (setting [3]) was 530 nM.
The like results for `CC(C)(C)c1ccn2cncc2c1C(O)C1CCCCC1` (stereo not shown) [Example B113, (7-(tert-Butyl)imidazo[1,5-a]pyridin-8-yl)(cyclohexyl)methanol] were, in that order, 9340 nM and 1300 nM.
The like results for `OC(c1c(C2CCC2)ccn2cncc12)C1CCCCC1` (stereo not shown) [Example B114, (7-Cyclobutylimidazo[1,5-a]pyridin-8-yl)(cyclohexyl)methanol] were, in that order, 3040 nM and 630 nM.
With `C=CC(O)c1c(C2CC2)ccn2cncc12` (stereo not shown) [Example B115, 1-(7-Cyclopropylimidazo[1,5-a]pyridin-8-yl)prop-2-en-1-ol], the EC50 in experiment [1] (setting [3]) was above 10000 nM. Further, at Recombinant IDO1 (setting [3]), the IC50 worked out at 120 nM.
The like results for `OC(c1c(Cl)ccn2cncc12)C1CC=CCC1` (stereo not shown) [Example B116, (7-Chloroimidazo[1,5-a]pyridin-8-yl)(cyclohex-3-en-1-yl)methanol] were, in that order, 4580 nM and 61 nM.
For the molecule `OC(c1c(C2CC2)ccn2cncc12)C1C2CC3CC(C2)CC1C3` (stereo not shown) [Example B117, (Adamantan-2-yl)(7-cyclopropylimidazo[1,5-a]pyridin-8-yl)methanol], in experiment [1] (setting [3]), a half-maximal effect (EC50) was put at 401 nM. Besides, the IC50 on Recombinant IDO1 (setting [3]) turned out to be 1100 nM.
In turn, `OC(CC12CC3CC(CC(C3)C1)C2)c1c(C2CC2)ccn2cncc12` (stereo not shown) [Example B118, 2-(Adamantan-1-yl)-1-(7-cyclopropylimidazo[1,5-a]pyridin-8-yl)ethan-1-ol] displayed a concentration for a half-maximal effect (EC50) in experiment [1] (setting [3]) of 179 nM. Moreover, the IC50 on Recombinant IDO1 (setting [3]) is 280 nM.
The like results for `CC(C)c1ccn2cncc2c1C(O)C1CCC(O[Si](C)(C)C(C)(C)C)CC1` (stereo not shown) [Example B120, (4-((tert-Butyldimethylsilyl)oxy)cyclohexyl)(7-isopropylimidazo[1,5-a]pyridin-8-yl)methanol] were, in that order, above 10000 nM and 790 nM.
The like results for `OC(c1c(C2CC2)ccn2cncc12)C1CC2CCC1C2` (stereo not shown) [Example B122, bicyclo[2.2.1]heptan-2-yl(7-cyclopropylimidazo[1,5-a]pyridin-8-yl)methanol] were, in that order, 116 nM and 53 nM.
The like results for `O[C@H](c1c(C2CC2)ccn2cncc12)[C@H]1C[C@H]2CC[C@@H]1C2` [Example B122a, (S)-((1R,2S,4S)-bicyclo[2.2.1]heptan-2-yl)(7-cyclopropylimidazo[1,5-a]pyridin-8-yl)methanol] were, in that order, 33 nM and 58 nM.
The molecule `OC(c1c(C2CC2)ccn2cncc12)C1CC2C=CC1CC2` (stereo not shown) [Example B123, Bicyclo[2.2.2]oct-5-en-2-yl(7-cyclopropylimidazo[1,5-a]pyridin-8-yl)methanol] gave a concentration giving a half-maximal response (EC50) in experiment [1] (setting [3]) of 754 nM. Moreover, the IC50 at Recombinant IDO1 (setting [3]) is 260 nM.
The like results for `OC(c1c(C2CC2)ccn2cncc12)C1CC2CCC1CC2` (stereo not shown) [Example B124, Bicyclo[2.2.2]octan-2-yl(7-cyclopropylimidazo[1,5-a]pyridin-8-yl)methanol] were, in that order, 376 nM and 440 nM.
The like results for `O=C(NC1CC1)c1cccc(C(O)c2c(C3CC3)ccn3cncc23)c1` (stereo not shown) [Example B125, N-cyclopropyl-3-((7-cyclopropylimidazo[1,5-a]pyridin-8-yl)(hydroxy)methyl)benzamide] were, in that order, 8500 nM and 170 nM.
The like results for `O=C(OCc1ccccc1)N1CCCC(C(O)c2c(C3CC3)ccn3cncc23)C1` (stereo not shown) [Example B129, Benzyl-3-((7-cyclopropylimidazo[1,5-a]pyridin-8-yl)(hydroxy)methyl) piperidine-1-carboxylate] were, in that order, above 10000 nM and 310 nM.
For `CC(C)(C)OC(=O)NCC(=O)N1CCCC(C(O)c2c(C3CC3)ccn3cncc23)C1` (stereo not shown) [Example B131, tert-Butyl (2-(3-((7-cyclopropylimidazo[1,5-a]pyridin-8-yl)(hydroxy)methyl)piperidin-1-yl)-2-oxoethyl) carbamate], the EC50 in experiment [1] (setting [3]) was above 10000 nM. In addition, the IC50 on Recombinant IDO1 (setting [3]) came out at 1700 nM.
